The numbers were not newly measured in patent publication US20030130231A1, “2:1 Complex of beta- or gamma-cyclodextrin and alpha-tocopherol” (WACKER-CHEMIE GmbH, priority 2002, published 2003), which cites them from elsewhere.

The structures appear in SMILES notation. Like-named read-outs stand apart in the source and are kept apart here. A value given as a limit tells only on which side of the number the result lay.

The conditions of data set [1]: cited from earlier work.
The conditions of data set [2]: cited from earlier work. The source holds these as a separate data set.

Consider `Cc1c(C)c2c(c(C)c1O)CC[C@@](C)(CCC[C@H](C)CCC[C@H](C)CCCC(C)C)O2` [α-tocopherol], for which the results for the “can be kept in the original packaging” value in data set [1] (stored at 5° C.) and in data set [1] (stored at room temperature) were “up to 24 months” and not above 12 months, respectively. Besides, the “solubility in water” value in data set [2] is reported as “insoluble in water”.
